# ChEMBL document CHEMBL4308841, “Synthesis, in vitro antiproliferative activity, and kinase inhibitory effects of pyrazole-containing diarylureas and diarylamides” (Eur J Med Chem, 2018)
# System: OVCAR-3
# Test: Growth inhibition of human OVCAR3 cells assessed as cell growth at 0.1 uM incubated for 48 hrs by sulforhodamine B assay relative to control
# Type: functional
# Details: OVCAR-3, 48 h, read-out: Activity
row,Structure (SMILES),growth at 0.1 µM [%]
1,O=C(Nc1cccc(-n2cc(-c3ccncc3)c(-c3cc(O)cc(Cl)c3)n2)c1)Nc1ccc(Cl)c(Cl)c1,101

# System: UACC-257
# Test: Growth inhibition of human UACC257 cells assessed as cell growth at 0.1 uM incubated for 48 hrs by sulforhodamine B assay relative to control
# Type: functional
# Details: UACC-257, 48 h, read-out: Activity
row,Structure (SMILES),growth at 0.1 µM [%]
1,O=C(Nc1cccc(-n2cc(-c3ccncc3)c(-c3cc(O)cc(Cl)c3)n2)c1)Nc1ccc(Cl)c(Cl)c1,91

# System: SF-539
# Test: Growth inhibition of human SF539 cells incubated for 48 hrs by sulforhodamine B assay
# Type: functional, cell-based
# Details: SF-539, 48 h, read-out: GI50
row,Structure (SMILES),GI50 [µM]
1,O=C(Nc1cccc(-n2cc(-c3ccncc3)c(-c3cc(O)cc(Cl)c3)n2)c1)Nc1ccc(Cl)c(Cl)c1,1.44

# Same assay, conditions: SF-539, 48 h, read-out: LC50 (the source's name)
row,Structure (SMILES),CC50 [µM]
1,O=C(Nc1cccc(-n2cc(-c3ccncc3)c(-c3cc(O)cc(Cl)c3)n2)c1)Nc1ccc(Cl)c(Cl)c1,7.4

# Same assay, conditions: SF-539, 48 h, read-out: TGI
row,Structure (SMILES),TGI [µM]
1,O=C(Nc1cccc(-n2cc(-c3ccncc3)c(-c3cc(O)cc(Cl)c3)n2)c1)Nc1ccc(Cl)c(Cl)c1,32.7

# Same assay, conditions: SF-539, 48 h, read-out: pGI50 (converted)
row,Structure (SMILES),GI50 [µM]
1,O=C(Nc1cccc(-n2cc(-c3ccncc3)c(-c3cc(O)cc(Cl)c3)n2)c1)Nc1ccc(Cl)c(Cl)c1,1.45

# Same assay, conditions: SF-539, 48 h, read-out: pLC50 (the source's name) (converted)
row,Structure (SMILES),CC50 [µM]
1,O=C(Nc1cccc(-n2cc(-c3ccncc3)c(-c3cc(O)cc(Cl)c3)n2)c1)Nc1ccc(Cl)c(Cl)c1,7.41

# Same assay, conditions: SF-539, 48 h, read-out: pTGI (converted)
row,Structure (SMILES),TGI [µM]
1,O=C(Nc1cccc(-n2cc(-c3ccncc3)c(-c3cc(O)cc(Cl)c3)n2)c1)Nc1ccc(Cl)c(Cl)c1,3.24

# System: HCT-116
# Test: Growth inhibition of human HCT116 cells assessed as cell growth at 0.1 uM incubated for 48 hrs by sulforhodamine B assay relative to control
# Type: functional
# Details: HCT-116, 48 h, read-out: Activity
row,Structure (SMILES),growth at 0.1 µM [%]
1,O=C(Nc1cccc(-n2cc(-c3ccncc3)c(-c3cc(O)cc(Cl)c3)n2)c1)Nc1ccc(Cl)c(Cl)c1,102

# System: HOP-62
# Test: Growth inhibition of human HOP62 cells assessed as cell growth at 1 uM incubated for 48 hrs by sulforhodamine B assay relative to control
# Type: functional
# Details: HOP-62, 48 h, read-out: Activity
row,Structure (SMILES),growth at 1 µM [%]
1,O=C(Nc1cccc(-n2cc(-c3ccncc3)c(-c3cc(O)cc(Cl)c3)n2)c1)Nc1ccc(Cl)c(Cl)c1,97

# System: HCT-15
# Test: Growth inhibition of human HCT15 cells assessed as cell growth at 100 uM incubated for 48 hrs by sulforhodamine B assay relative to control
# Type: functional
# Details: HCT-15, 48 h, read-out: Activity
row,Structure (SMILES),growth at 100 µM [%]
1,O=C(Nc1cccc(-n2cc(-c3ccncc3)c(-c3cc(O)cc(Cl)c3)n2)c1)Nc1ccc(Cl)c(Cl)c1,-23

# System: RPMI-8226
# Test: Growth inhibition of human RPMI8226 cells assessed as cell growth at 1 uM incubated for 48 hrs by sulforhodamine B assay relative to control
# Type: functional
# Details: RPMI-8226, 48 h, read-out: Activity
row,Structure (SMILES),growth at 1 µM [%]
1,O=C(Nc1cccc(-n2cc(-c3ccncc3)c(-c3cc(O)cc(Cl)c3)n2)c1)Nc1ccc(Cl)c(Cl)c1,57

# System: SF-295
# Test: Growth inhibition of human SF295 cells assessed as cell growth at 1 uM incubated for 48 hrs by sulforhodamine B assay relative to control
# Type: functional
# Details: SF-295, 48 h, read-out: Activity
row,Structure (SMILES),growth at 1 µM [%]
1,O=C(Nc1cccc(-n2cc(-c3ccncc3)c(-c3cc(O)cc(Cl)c3)n2)c1)Nc1ccc(Cl)c(Cl)c1,77

# System: NCI-H226
# Test: Growth inhibition of human NCI-H226 cells assessed as cell growth at 0.1 uM incubated for 48 hrs by sulforhodamine B assay relative to control
# Type: functional
# Details: NCI-H226, 48 h, read-out: Activity
row,Structure (SMILES),growth at 0.1 µM [%]
1,O=C(Nc1cccc(-n2cc(-c3ccncc3)c(-c3cc(O)cc(Cl)c3)n2)c1)Nc1ccc(Cl)c(Cl)c1,89

# System: U-251
# Test: Growth inhibition of human U251 cells assessed as cell growth at 1 uM incubated for 48 hrs by sulforhodamine B assay relative to control
# Type: functional
# Details: U-251, 48 h, read-out: Activity
row,Structure (SMILES),growth at 1 µM [%]
1,O=C(Nc1cccc(-n2cc(-c3ccncc3)c(-c3cc(O)cc(Cl)c3)n2)c1)Nc1ccc(Cl)c(Cl)c1,74

# System: NCI-H460
# Test: Growth inhibition of human NCI-H460 cells assessed as cell growth at 0.1 uM incubated for 48 hrs by sulforhodamine B assay relative to control
# Type: functional
# Details: NCI-H460, 48 h, read-out: Activity
row,Structure (SMILES),growth at 0.1 µM [%]
1,O=C(Nc1cccc(-n2cc(-c3ccncc3)c(-c3cc(O)cc(Cl)c3)n2)c1)Nc1ccc(Cl)c(Cl)c1,97

# System: Hs-578T
# Test: Growth inhibition of human Hs578T cells assessed as cell growth at 1 uM incubated for 48 hrs by sulforhodamine B assay relative to control
# Type: functional
# Details: read-out: Activity
row,Structure (SMILES),growth at 1 µM [%]
1,O=C(Nc1cccc(-n2cc(-c3ccncc3)c(-c3cc(O)cc(Cl)c3)n2)c1)Nc1ccc(Cl)c(Cl)c1,57

# System: DU-145
# Test: Growth inhibition of human DU145 cells incubated for 48 hrs by sulforhodamine B assay
# Type: functional, cell-based
# Details: DU-145, 48 h, read-out: GI50
row,Structure (SMILES),GI50 [µM]
1,O=C(Nc1cccc(-n2cc(-c3ccncc3)c(-c3cc(O)cc(Cl)c3)n2)c1)Nc1ccc(Cl)c(Cl)c1,2.5

# Same assay, conditions: DU-145, 48 h, read-out: LC50 (the source's name)
row,Structure (SMILES),CC50 [µM]
1,O=C(Nc1cccc(-n2cc(-c3ccncc3)c(-c3cc(O)cc(Cl)c3)n2)c1)Nc1ccc(Cl)c(Cl)c1,> 100

# Same assay, conditions: DU-145, 48 h, read-out: TGI
row,Structure (SMILES),TGI [µM]
1,O=C(Nc1cccc(-n2cc(-c3ccncc3)c(-c3cc(O)cc(Cl)c3)n2)c1)Nc1ccc(Cl)c(Cl)c1,10.1

# Same assay, conditions: DU-145, 48 h, read-out: pGI50 (converted)
row,Structure (SMILES),GI50 [µM]
1,O=C(Nc1cccc(-n2cc(-c3ccncc3)c(-c3cc(O)cc(Cl)c3)n2)c1)Nc1ccc(Cl)c(Cl)c1,2.82

# Same assay, conditions: DU-145, 48 h, read-out: pLC50 (the source's name) (converted)
row,Structure (SMILES),CC50 [µM]
1,O=C(Nc1cccc(-n2cc(-c3ccncc3)c(-c3cc(O)cc(Cl)c3)n2)c1)Nc1ccc(Cl)c(Cl)c1,> 100

# Same assay, conditions: DU-145, 48 h, read-out: pTGI (converted)
row,Structure (SMILES),TGI [µM]
1,O=C(Nc1cccc(-n2cc(-c3ccncc3)c(-c3cc(O)cc(Cl)c3)n2)c1)Nc1ccc(Cl)c(Cl)c1,10.2

# System: SR
# Test: Growth inhibition of human SR cells assessed as cell growth at 0.01 uM incubated for 48 hrs by sulforhodamine B assay relative to control
# Type: functional
# Details: read-out: Activity
row,Structure (SMILES),growth at 0.01 µM [%]
1,O=C(Nc1cccc(-n2cc(-c3ccncc3)c(-c3cc(O)cc(Cl)c3)n2)c1)Nc1ccc(Cl)c(Cl)c1,57

# System: OVCAR-3
# Test: Growth inhibition of human OVCAR3 cells assessed as cell growth at 100 uM incubated for 48 hrs by sulforhodamine B assay relative to control
# Type: functional
# Details: OVCAR-3, 48 h, read-out: Activity
row,Structure (SMILES),growth at 100 µM [%]
1,O=C(Nc1cccc(-n2cc(-c3ccncc3)c(-c3cc(O)cc(Cl)c3)n2)c1)Nc1ccc(Cl)c(Cl)c1,-20
